Results on seven compounds are retold here after patent US20060069132A1, “Azolecarboxamide herbicides” (priority 2004, published 2006).

For test [1], the system named is velvetleaf. Briefly: Test B pre-/postemergence herbicide test. It counts as in vivo, Abutilon theophrasti. An outline of the steps:
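Visual rating, 0 (no effect) to 100 (complete control), versus untreated controls after 13–15 d in greenhouse. Pre- and postemergence applications (postemergence plants 2–18 cm, 1–4 leaves); flooded paddy arm at 2-leaf stage. Compounds in non-phytotoxic solvent plus surfactant.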

The test system of test [2] is large crabgrass. Briefly: Test A pre-/postemergence herbicide test. As to conditions: for pest or weed control at 125 g/ha / pest or weed control at 500 g/ha: Digitaria sanguinalis, 240 h, read-out: Crabgrass, Large plant response rating; for pest or weed control at 125 g/ha: 125 g ai/ha. It counts as in vivo, Digitaria sanguinalis. An outline of the steps:
(§1)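 Greenhouse injury scoring (0–100, complete control = 100) at approximately ten days follows simultaneous pre- and postemergence application. Soil received a directed spray after seeding; seedlings of 2–10 cm at the one- to two-leaf stage were sprayed to runoff.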

The test system of test [3] is smallflower umbrella sedge. Briefly: Test C flooded paddy test. It counts as in vivo, Cyperus difformis.
In test [4] the test system is barnyardgrass. The experiment in a line: Test A pre-/postemergence herbicide test. As to conditions: for pest or weed control at 125 g/ha / pest or weed control at 500 g/ha: Echinochloa crus-galli, 240 h, read-out: Barnyardgrass plant response rating; for pest or weed control at 125 g/ha: 125 g ai/ha. It counts as in vivo, Echinochloa crus-galli. In a few lines: as §1

[5] abbreviates: Abutilon theophrasti, post-emergence, 336 h, postemergence, 125 g ai/ha, visual rating, scale 0 (no effect) to 100 (complete control), read-out: Velvetleaf plant response rating.
The mark [6] stands for this setting: Abutilon theophrasti, pre-emergence, 336 h, 125 g ai/ha, 0 = no effect, 100 = complete control, read-out: Velvetleaf plant response rating (0 to 100 scale).
Setting [7] is: Postemergence, 500 g ai/ha, 0 to 100 scale, 0 no effect, 100 complete control.
The mark [8] stands for this setting: Postemergence, 2000 g ai/ha, 0 to 100 scale, 0 no effect, 100 complete control.
Where [9] appears, read: Preemergence, 2000 g ai/ha, visual rating, 0 to 100 scale (0 no effect, 100 complete control).
Where [10] appears, read: preemergence, 500 g ai/ha, visual injury, 0 to 100 scale (0 no effect, 100 complete control).
The mark [11] stands for this setting: 125 g ai/ha, scale 0 to 100 (0 no effect, 100 complete control).
Where [12] appears, read: 250 g ai/ha, scale of 0 to 100, 0 is no effect, 100 is complete control.
[13] abbreviates: 500 g ai/ha, visual rating after 12 to 14 days, scale 0 to 100 (0 no effect, 100 complete control).
[14] abbreviates: 500 g ai/ha, visual rating, 0 = no effect, 100 = complete control, preemergence.
Where [15] appears, read: postemergence, 125 g ai/ha, visual rating, scale 0 (no effect) to 100 (complete control).
Setting [16] is: postemergence, 500 g ai/ha, scale 0 to 100, 0 is no effect, 100 is complete control.
Where [17] appears, read: Preemergence, 500 g ai/ha, visual rating, 0 to 100 scale (0 no effect, 100 complete control).
Setting [18] is: 125 g ai/ha, visual rating, scale 0 (no effect) to 100 (complete control), postemergence.
Setting [19] is: post-emergence, Postemergence, 0 to 100 scale, 0 no effect, 100 complete control.
[20] abbreviates: post-emergence, Postemergence, 500 g ai/ha, 0 to 100 scale, 0 no effect, 100 complete control.
[21] abbreviates: pre-emergence, preemergence, visual injury, 0 to 100 scale (0 no effect, 100 complete control).
[22] abbreviates: pre-emergence, preemergence, 500 g ai/ha, visual injury, 0 to 100 scale (0 no effect, 100 complete control).

Where two headings read alike, the source gives them in different places.

With `CCc1cn(C(C)(C)C)nc1C(=O)Nc1cccc(C(=O)N(CC)CC)c1` [Compound 168, N-[3-[(diethylamino)carbonyl]phenyl]-1-(1,1-dimethylethyl)-4-ethyl-1H-pyrazole-3-carboxamide], in test [1] (Abutilon theophrasti, post-emergence, 336 h, postemergence, 31 g ai/ha, scale 0 to 100, read-out: Velvetleaf plant response rating), the pest or weed control at 31 g/ha amounted to 10%. Moreover, the pest or weed control at 125 g/ha is 20% in test [1] (setting [5]) and 60% in test [1] (setting [6]).

On to `C=CCN(C)C(=O)c1cccc(NC(=O)c2cc(C(C)(C)C)nn2CC)c1` [Compound 285], for which the results for the “Crabgrass, Large plant response rating” value in test [2] (setting [7]), in test [2] (setting [9]) and in test [2] (setting [10]) were 15, 85 and 60, respectively. Also, the “Plant response rating, Crabgrass, Large” value in test [2] (setting [8]) came out at 35. Besides, the “Sedge, Umbrella plant response rating” value in test [3] (62 g ai/ha, scale 0 to 100) is listed as 25; in test [3] (setting [11]), 35; in test [3] (setting [12]), 50. In addition, in test [3] (setting [13]), the “Plant response rating, Sedge, Umbrella” value was determined as 65. For the same compound, the “Velvetleaf plant response rating (0 to 100 scale)” value in test [1] (125 g ai/ha, 0 = no effect, 100 = complete control, preemergence) was determined as 30. Also, in test [1] (setting [14]), the “Plant response rating, Velvetleaf” value worked out at 100. For the same compound, the “Velvetleaf plant response rating” value in test [1] (setting [15]) is 10; in test [1] (setting [16]), 40. The results for the “Barnyardgrass plant response rating” value in test [4] (setting [7]), in test [4] (setting [9]) and in test [4] (setting [10]) were 55, 90 and 70, respectively. The “Plant response rating, Barnyardgrass” value in test [4] (setting [8]) is listed as 80.

As to `C=Cn1nc(C(C)(C)C)cc1C(=O)Nc1cccc(C(C)=O)c1` [Compound 127], the results for the “Crabgrass, Large plant response rating” value in test [2] (setting [7]), in test [2] (setting [17]) and in test [2] (setting [9]) were 15, 75 and 85, respectively. Besides, the “Plant response rating, Crabgrass, Large” value in test [2] (setting [8]) is 35. Besides, the “Sedge, Umbrella plant response rating” value in test [3] (62 g ai/ha, scale 0 to 100 (0 no effect, 100 complete control)) was determined as 80; in test [3] (setting [11]), 80; in test [3] (setting [12]), 80. Moreover, the “Plant response rating, Sedge, Umbrella” value in test [3] (setting [13]) worked out at 85. Also, the “Plant response rating, Velvetleaf” value was determined as 20 in test [1] (500 g ai/ha, visual rating 0-100, 0 no effect, 100 complete control, preemergence) and 10 in test [1] (preemergence, 125 g ai/ha, 0 to 100 scale, 0 is no effect, 100 is complete control). Further, the “Velvetleaf plant response rating” value in test [1] (setting [15]) is on record as 0; in test [1] (postemergence, 500 g ai/ha, visual rating, scale 0 (no effect) to 100 (complete control)), 10. Also, the entries for the “Barnyardgrass plant response rating” value in test [4] (setting [7]), in test [4] (setting [17]) and in test [4] (setting [9]) were 30, 20 and 30, respectively. Besides, the “Plant response rating, Barnyardgrass” value in test [4] (setting [8]) worked out at 50.

Regarding `CCOC(=O)c1cccc(NC(=O)c2cc(C(C)(C)C)nn2C)n1` [Compound 313], the “Crabgrass, Large plant response rating” value in test [2] (setting [7]) is reported as 70; in test [2] (setting [9]), 95; in test [2] (setting [10]), 85. For the same compound, the “Plant response rating, Crabgrass, Large” value in test [2] (setting [8]) came out at 100. For the same compound, the “Sedge, Umbrella plant response rating” value in test [3] (16 g ai/ha, scale 0 to 100) was 0; in test [3] (31 g ai/ha, scale 0 to 100), 0; in test [3] (62 g ai/ha, scale 0 to 100), 30; in test [3] (setting [11]), 70. Further, the entries for the “Velvetleaf plant response rating” value in test [1] (setting [18]) and in test [1] (setting [16]) were 60 and 70, respectively. Besides, the “Plant response rating, Velvetleaf” value in test [1] (setting [14]) stood at 100. Moreover, the “Barnyardgrass plant response rating” value worked out at 80 in test [4] (setting [7]), 90 in test [4] (setting [9]) and 80 in test [4] (setting [10]). Moreover, the “Plant response rating, Barnyardgrass” value in test [4] (setting [8]) stood at 95.

Take `CCn1nc(C(C)(C)C)c(F)c1C(=O)Nc1cc(C(=O)N(C)C)ccc1F` [Compound 276, N-[5-[(dimethylamino)carbonyl]-2-fluorophenyl]-3-(1,1-dimethylethyl)-1-ethyl-4-fluoro-1H-pyrazole-5-carboxamide]: in test [3] (Cyperus difformis, 62 g ai/ha, scale 0 to 100, read-out: Sedge, Umbrella plant response rating), the pest or weed control at 62 g/ha stood at 45%. Further, the pest or weed control at 125 g/ha in test [3] (Cyperus difformis, 125 g ai/ha, scale 0 to 100 (0 no effect, 100 complete control), read-out: Sedge, Umbrella plant response rating) came out at 75%; in test [1] (setting [5]), 10%; in test [1] (setting [6]) it was 0%. Further, in test [3] (Cyperus difformis, 250 g ai/ha, scale of 0 to 100, 0 is no effect, 100 is complete control, read-out: Sedge, Umbrella plant response rating), the pest or weed control at 250 g/ha is 80%. For the same compound, the pest or weed control at 500 g/ha is 85% in test [3] (Cyperus difformis, 500 g ai/ha, visual rating after 12 to 14 days, scale 0 to 100 (0 no effect, 100 complete control), read-out: Plant response rating, Sedge, Umbrella); 40% in test [1] (Abutilon theophrasti, post-emergence, 336 h, postemergence, 500 g ai/ha, scale 0 to 100, 0 is no effect, 100 is complete control, read-out: Velvetleaf plant response rating); 50% in test [1] (Abutilon theophrasti, pre-emergence, 336 h, 500 g ai/ha, visual rating, 0 = no effect, 100 = complete control, read-out: Plant response rating, Velvetleaf).

As for `CCNC(=O)c1ccc(F)c(NC(=O)c2c3c(nn2CC)C(C)(C)CC3)c1` [Compound 353], the “Sedge, Umbrella plant response rating” value stood at 0 in test [3] (62 g ai/ha, scale 0 to 100); 0 in test [3] (setting [11]); 50 in test [3] (setting [12]). In test [3] (setting [13]), the “Plant response rating, Sedge, Umbrella” value was found to be 50. Also, in test [1] (125 g ai/ha, 0 is no effect, 100 is complete control, preemergence), the “Plant response rating (0 to 100 scale), Velvetleaf” value was 10. The “Velvetleaf plant response rating” value in test [1] (setting [18]) and in test [1] (setting [16]) was 20 each time.

As to `CCNC(=O)c1cccc(NC(=O)c2nc(C(C)(C)C)nn2CC)c1` [Compound 446, 3-(1,1-dimethylethyl)-1-ethyl-N-[3-[(ethylamino)carbonyl]phenyl]-1H-1,2,4-triazole-5-carboxamide], the pest or weed control at 125 g/ha in test [2] (setting [19]) turned out to be 45%; in test [2] (setting [21]) it was 10%; in test [4] (setting [19]), 80%; in test [4] (setting [21]) it was 55%. Moreover, the pest or weed control at 500 g/ha in test [2] (setting [20]) was found to be 65%; in test [2] (setting [22]) it was 40%; in test [4] (setting [20]) it was 90%; in test [4] (setting [22]), 85%.
